ChEMBL document CHEMBL1811903, “Protective role of 14-deoxy-11,12-didehydroandrographolide, a noncytotoxic analogue of andrographolide, in allergic airway inflammation” (J Nat Prod, 2011)

Tests used:
Format in all cases: cell-based
[1] = Cytotoxicity against human BEAS2B cells assessed as reduction in cell viability after 48 hrs by MTS assay; settings: beas-2b
A549 [2] = assay: Cytotoxicity against human A549 cells assessed as reduction in cell viability at 3 to 120 uM by MTS assay; settings: a549, 120 µM, TDE = time-dependent effect
[3] = Cytotoxicity against human BEAS2B cells assessed as reduction in cell viability after 24 hrs by MTS assay; settings: beas-2b
RBL-2H3 [4] = assay: Cytotoxicity against rat RBL2H3 cells assessed as reduction in cell viability after 24 hrs by MTS assay; settings: rbl-2h3, 24 h
A549 [5] = assay: Cytotoxicity against human A549 cells assessed as reduction in cell viability after 24 hrs by MTS assay; settings: a549, 24 h
RBL-2H3 [6] = assay: Cytotoxicity against rat RBL2H3 cells assessed as reduction in cell viability at 3 to 120 uM by MTS assay; settings: rbl-2h3, 120 µM, TDE = time-dependent effect
RBL-2H3 [7] = assay: Cytotoxicity against rat RBL2H3 cells assessed as reduction in cell viability after 48 hrs by MTS assay; settings: rbl-2h3, 48 h
[8] = Cytotoxicity against human BEAS2B cells assessed as reduction in cell viability at 3 to 120 uM by MTS assay; settings: beas-2b, TDE = time-dependent effect
A549 [9] = assay: Cytotoxicity against human A549 cells assessed as reduction in cell viability after 48 hrs by MTS assay; settings: a549, 48 h

C=C1CC[C@@H]2[C@](C)(CO)[C@H](O)CC[C@@]2(C)[C@@H]1C/C=C1/C(=O)OC[C@H]1O [ANDROGRAPHOLIDE]
Activity [1]: Dose-dependent effect | Activity (A549 [2]): tde | Activity [3]: Dose-dependent effect | Activity (RBL-2H3 [4]): Dose-dependent effect | Activity (A549 [5]): Dose-dependent effect | Activity (RBL-2H3 [6]): tde | Activity (RBL-2H3 [7]): Dose-dependent effect | Activity [8]: tde | Activity (A549 [9]): Dose-dependent effect
